Assays:
NMRI-Mäusen = experiment: Sedative effect: inhibition of novelty-induced orientation hypermotility (photoelectric measurement); assay type: in vivo; conditions: for ED50: Mus musculus, 0.5 h, oral, female NMRI mice, measured 30 min after dosing for 30 min, dose giving 50 % decrease of orientation hypermotility, read-out: Sedation ED50; for Sedation R.W.: relative Wirksamkeit = ED50 Vergleichssubstanz / ED50 Beispiel, Clozapin = 1,0
Description: 4 bis 8 Gruppen von Jeweils 3 weiblichen NMRI-Mäusen erhalten die Substanzen oral appliziert. Die photoelektrische Bestimmung der durch eine neue Umgebung induzierten Orientierungshypermotilität erfolgt 30 min nach der Applikation der Substanzen für eine Dauer von 30 min. " Als ED50 wird die Dosis bestimmt, welche im Ver- gleich zu Placebo-behandelten Kontrolltieren eine Abnahme der Orientierungshypermotilität um 50 % bewirkt.

Ratten [1] = experiment: Antimethamphetamine effect: suppression of methamphetamine-induced sniffing; assay type: in vivo; conditions: for ED50: ip, 0.5 h, rat, intraperitoneal 30 min before Methamphetamin . HCl 2,5 mg/kg i.v., absence of sniffing within 5 min, probit analysis, read-out: Methamphetaminantagonismus ED50; for Methamphetaminantagonismus R.W.: relative Wirksamkeit = ED50 Vergleichssubstanz / ED50 Beispiel, Clozapin = 1,0
Description: Antimethamphetamin-Wirkung
Methamphetamin . […] Die Prüfsubstanzen werden 30 min vor Methamphetamin intraperitoneal verabfolgt. Kriterium für einen Substanzeffekt ist das Ausbleiben der Schnüffelbewegungen innerhalb eines 5-minütigen Beobachtungszeitraumes nach Meth- amphetamin-Injektion. Als mittlere Hemmdosis (ED50) ' wird mittels Probitanalyse die Dosis ermittelt, die das Symptom bei der Hälfte der Tiere verhindert.

Ratten [2] = experiment: Central anticholinergic effect: suppression of pilocarpine-induced scratching; assay type: in vivo; conditions: for ED50: ip, 0.5 h, rat, intraperitoneal 30 min before Pilocarpin . HCl 50 mg/kg i.v., absence of scratching within 2 min, probit analysis, read-out: Zentral-anticholinerge Wirkung ED50; for Zentral-anticholinerge Wirkung R.W.: relative Wirksamkeit = ED50 Vergleichssubstanz / ED50 Beispiel, Clozapin = 1,0
Description: 4. Zentral-anticholinerge Wirkung
Zur Prüfung auf zentrale anticholinerge Wirkung wird durch Pilocarpin eine cholinerge Stimulierung ausgelöst. Ratten zeigen nach rascher intravenöser Injektion von Pilocarpin . HC1 (50 mg/kg) alternierende Kratzbewegungen der Hinterpfoten; weitere zentral ausgelöste Symptome sind Kieferbewegungen und Tremor. ALs Zeichen peripherer übererregung können Speichelfluß und Chromodakryorrhoe beobachtet werden (Kreiskott, Arch. exp. Path. Pharmak. 247, 317, 1964). Die Prüfsubstanzen werden 30 min vor Pilocarpin intraperitoneal verabfolgt. Kriterium für einen Substanzeffekt ist das Ausbleiben des Kratzens innerhalb 2 min nach Pilocarpin-Injektion. Für dieses Symptom wird als mittlere Hemmdosis (ED50) mittels Probitanalyse nach Finney diejenige Dosis der Prüfsubstanz ermittelt, welche die Kratzabläufe bei der Hälfte der Tiere unterdrückt.

Kaninchens = experiment: Muscle-relaxant effect: tonic stretch reflex of the gastrocnemius; assay type: in vivo, Kaninchen; conditions: for ED50: Oryctolagus cuniculus, rabbit, intravenous, tonic stretch reflex impulse counts relative to pre-dose values, read-out: Muskelrelaxation ED50; for Muskelrelaxation R.W.: relative Wirksamkeit = ED50 Vergleichssubstanz / ED50 Beispiel, Clozapin = 1,0
Text: 2. […] auf der Quantifizierung des tonischen Dehnungsreflexes am Gastocnemius des […] et al., Arch. Pharmacol. exp. Path. 266, 462, 1970). Das Kaninchen wird in einer speziellen Apparatur fixiert, die es erlaubt, die Pfote im Sprunggelenk in […] und reproduzierbarer Weise zu beugen. Durch die Beugung wird in der Wadenmuskulatur ein tonischer Dehnungsreflex ausgelöst. Die […] des Muskels während der Kontraktion wird registriert und die Einzelimpulse gezählt. Die Dehnung (Dauer 5 s) wird in Minutenabständen wiederholt. Nach Erreichen einer konstanten Impulszahl (Kontrollwert) wird die Testsubstanz intravenös appliziert. Die Impulszahlen nach Applikation werden auf die Vorwerte bezogen.

Row | SMILES | ED50 (NMRI-Mäusen) | Sedation R.W. (NMRI-Mäusen) | ED50 (Ratten [1]) | Methamphetaminantagonismus R.W. (Ratten [1]) | ED50 (Ratten [2]) | Zentral-anticholinerge Wirkung R.W. (Ratten [2]) | ED50 (Kaninchens) | Muskelrelaxation R.W. (Kaninchens)
1 | CN1CCN(C2=Nc3ccccc3Cc3ccccc32)CC1 [Perlapin, reference compound] | 2.1 mg/kg | 2,24 | 31 mg/kg | 1,2 | 14 mg/kg | 0,22 | 0.11 mg/kg | 0,42
2 | CN1CCN(C2=Nc3cscc3C(=CC#N)c3cscc32)CC1 [Beispiel 1a, 9-Cyanmethylen-5-(4-methyl-piperazin-1-yl)-dithieno-[3.4-b:4'.3'-e]azepin] | 7.4 mg/kg | 0,64 | 5.1 mg/kg | 7,25 | 2.8 mg/kg | 1,1 | 0.14 mg/kg | 0,33
3 | CCN1CCN(C2=Nc3cscc3C(=CC#N)c3cscc32)CC1 (mixture of isomers) [Beispiel 6, cis, trans-9-Cyanmethylen-5-(4-äthyl-piperazin-1-yl)-di-thieno[3.4-b:4'.3'-elazepin] | 10.6 mg/kg | 0,44 | 42 mg/kg | 0,88 | – | – | 0.22 mg/kg | 0,21
4 | CN1CCN(C2=Nc3c(csc3Cl)C(=CC#N)c3cscc32)CC1 (mixture of isomers) [Beispiel 2, cis, trans-3-Chlor-9-cyanmethyl en-5-(4-methylpiperazin-1--yl)-dithieno[3.4-b:4'.3'-e]azepin] | 9.6 mg/kg | 0,49 | – | – | – | – | 0.08 mg/kg | 0,56
5 | CN1CCN(C2=Nc3cc(Cl)ccc3Nc3ccccc32)CC1 [Clozapin, reference compound] | 4.7 mg/kg | 1,0 | 37 mg/kg | 1,0 | 3.1 mg/kg | 1,0 | – | 1,0
6 | CN1CCN(C2=Nc3cscc3/C(=C/C#N)c3cscc32)CC1 [1b cis] | 5 mg/kg | 0,94 | 5.5 mg/kg | 6,72 | 0.6 mg/kg | 5,2 | 0.22 mg/kg | 0,21
7 | CN1CCN(C2=Nc3cscc3/C(=C\C#N)c3cscc32)CC1 [1b trans] | > 21.5 mg/kg | <0,22 | 77 mg/kg | 0,48 | 13 mg/kg | 0,24 | > 1 mg/kg | <0,046

— EP0050212A1, “5-Substituted-9-cyane-methylene-dithieno(3,4-b:4',3'-e) azepines, process for their preparation and pharmaceutical compositions containing them” (BASF Aktiengesellschaft, priority 1980, dated 1982)
